Data: patent US6387647B1 (priority 1993, dated 2002)

Experiments:
[1] = test system: DCX45(pML82)-1B (disrupted cytochrome P450 reductase gene); assay: disk sensitivity on YEPD of LEU+ spores / strain DCX45(pML82)-1B (Example 1); conditions: for sensitivity of LEU+ cultures compared with leu− cultures: spores plated on YEPD, disks containing the inhibitors
erg6 mutants = conditions: cited from earlier work
[2] = test system: Saccharomyces cerevisiae strain DCX45(pML82)-1B (disrupted cytochrome P450 reductase gene) versus strain STX429-2A (erg6); assay type: cell-based; conditions: 20 μg per disk; YEPD agar, 30° C., two days; differential of approximately 8 mm or more scored as active
Method: Liquid yeast extract, peptone and dextrose (YEPD) media is first prepared by mixing the following ingredients obtained from Difco
and autoclaving at 20 lbs for 15 min. Solidified YEPD media is prepared using the above ingredients, except that
(§1) Overnight cultures of S. cerevisiae strain DCX45-(pML82)-1B from Example 1 above and strain STX429-2A obtained from the Yeast Genetics Stock Center are grown in liquid YEPD media shaken at 30° C. to an OD600 of ˜5 or greater.
(§2) Test media are prepared by combining separately 0.5 parts STX429-2A inoculum to 100 parts of warm YEPD agar media and 2 parts of DCX45(pML82)-1B to 100 parts of warm YEPD agar media. Plates for each culture are poured. Test samples are prepared on disks in duplicate, and each is placed on a STX429-2A plate and a DCX45(pML82)-1B plate, testing 20 μg of test sample per disk. A ¼″ disk containing 10 μg of dinaconazole is used as a positive control on each plate.
(§3) The plates are incubated at 30° C. for two days and then examined to compare activity on the two strains. Actives produce a larger zone on the DCX45(pML82)-1B plate than on the STX429-2A plate. Only compounds producing a differential of approximately 8 mm or more are scored as active.

STX429-2A (erg 6) = conditions: strain STX429-2A (erg 6)
Method: as §2
The plates are incubated at 30° C. for two days and then examined to compare activity on the two strains. Actives produce a larger zone on the DCX45(pML82)-1B plate than on the STX429-2A plate.

DCX45 (pML82)-1B = assay: imidazole sensitivity (limit of detection) on cytochrome P450 reductase disrupted strain; assay type: cell-based, Saccharomyces cerevisiae
Method: as §1, §2, §3
The imidazole sensitivity of these compounds in the strains is as follows: […]

[3] = test system: cytochrome P450 reductase yeast mutants (TSY11-6C, TSY21); conditions: cited from earlier work

| Compound | activity in the cytochrome P450 reductase screen (larger zone on the DCX45(pML82)-1B plate than on the STX429-2A plate) [2] | Limit of Detection (DCX45 (pML82)-1B) | sensitivity of LEU+ cultures compared with leu− cultures [1] | other results |
| --- | --- | --- | --- | --- |
| C/C=C/C/C=C/CCC(=O)[C@H]1O[C@H]1C(N)=O [cerulenin] |  |  |  | sensitivity of strain DCX45(pML82)-1B [1]: increased sensitivity |
| C[C@@H]1C[C@@H]([C@H](O)CC2CC(=O)NC(=O)C2)C(=O)[C@@H](C)C1 [cycloheximide] |  |  |  | sensitivity or resistance of erg6 mutant strains (erg6 mutants): hypersensitivity |
| CC(C)(C)C(O)/C(=C/c1ccc(Cl)cc1Cl)n1cncn1 (centres unmarked) [dinaconazole] | active | 2 ng | more sensitive | Limit of Detection (STX429-2A (erg 6)): 50 ng |
| Clc1ccc(COC(Cn2ccnc2)c2ccc(Cl)cc2Cl)cc1 (centres unmarked) [econazole] | active | 2 ng | more sensitive | Limit of Detection (STX429-2A (erg 6)): 50 ng |
| CN1C(=O)[C@]23CC4=CC=C[C@H](O)[C@H]4N2C(=O)[C@@]1(CO)SS3 [gliotoxin] | positive |  |  |  |
| CC(=O)N1CCN(c2ccc(OCC3COC(Cn4ccnc4)(c4ccc(Cl)cc4Cl)O3)cc2)CC1 (centres unmarked) [ketoconazole] | active | 5 ng | more sensitive | sensitivity of strains TSY11-6C and TSY21 ([3]; disrupted cytochrome P450 reductase genes): sensitive; increase in sensitivity of cytochrome P450 reductase yeast mutants ([3]; mutants lacking the cytochrome P450 reductase gene): 200 fold; sensitivity of strain DCX45(pML82)-1B [1]: supersensitivity |
| Clc1ccc(COC(Cn2ccnc2)c2ccc(Cl)cc2Cl)c(Cl)c1 (centres unmarked) [miconazole] | active |  |  |  |
| C[C@@H]1[C@H](O)[C@@H](C)/C=C/C=C/CC/C=C/C=C/C=C/C=C/C(O[C@H]2O[C@H](C)[C@@H](O)[C@H](N)[C@@H]2O)CC2O[C@](O)(CC(O)C(O)CCC(O)CC(O)CC(O)CC(=O)O[C@H]1C)CC(O)C2C(=O)O (some centres unmarked) [nystatin] |  |  |  | sensitivity or resistance of erg6 mutant strains (erg6 mutants): resistance |
| mevinolin [lactonized mevinolin] | no response |  |  |  |
